According to US12201599B2, “Compositions and methods for inhibiting blood cancer cell growth” (University of New Brunswick, priority 2017, dated 2025):

What was measured:
Cyclin D3 = test: Immunoblot of cyclin D3 protein levels in KMM1 cells; assay type: cell-based, human; conditions: 48 hours; for effect on cyclin D3 levels: KMM1, 1, 5 and 25 μM; for cyclin D3 protein levels in comparison with CAPE: KMM1, 25 μM
Ikaros [1] = test: Immunoblot of Ikaros in lenalidomide-responsive KMS-11 cells; assay type: cell-based, human; conditions: KMS-11, 50 μM
Source text: (§1) Total protein extract was obtained from KMM1 and KMS-11 cells treated with CAPE and its closely related analogues and concentration of proteins determined by the Bicinchoninic acid assay (BCA) method. Protein samples were then fractionated by sodium dodecyl sulfate polyacrylamide gel electrophoresis (SDS PAGE) and transferred electrophoretically to a polyvinylidene (PVDF) membrane. Blots were then blocked with 5% nonfat dry milk in tris(hydroxymethyl)aminomethane-buffered saline-tween (TBS-T) for 1 hour and then incubated overnight with goat polyclonal anti-IRF4 antibody; rabbit polyclonal anti-OCT2 antibody, rabbit polyclonal anti-Bob1 antibody (Santa Cruz Biotechnology, Santa Cruz, CA); mouse polyclonal anti-Cyclin D3 (Cell Signaling Technology, Whitby, ON) and mouse monoclonal anti-beta tubulin antibody (Abcam, Cambridge, MA). Detection of protein in PVDF membrane was performed using the chemiluminescence kit (Bio-Rad Laboratories, Hercules, CA).

IRF4 [2] = test: Immunoblot of IRF4 in lenalidomide-responsive KMS-11 cells; assay type: cell-based, human; conditions: KMS-11 (lenalidomide responsive)
Source text: as §1

IRF4 [3] = test: Immunoblot of IRF4 protein expression in KMM1 cells
Source text: as §1
KMM1 cells were treated with 1, 5 and 25 μM of CAPE and its closely related analogues for 48 hours, cells were then harvested and proteins were extracted. 15 μg protein lysates were separated on a 4-20% gradient gel and then transferred to the PVDF membrane. The membrane was probed for IRF4 protein expression using affinity purified goat polyclonal antibody. Beta-actin was used as protein loading control.

OCT2 = test: Immunoblot of OCT2 protein levels in KMM1 cells; assay type: cell-based, human; conditions: KMM1, 25 μM, 48 hours
[4] = test system: normal human bone marrow mononuclear cells; test: Cell viability of normal mononuclear cells after 48 hr, Prestoblue cell viability assay; assay type: cell-based; conditions: for Normal Bone Marrow Mononuclear Cell Viability (%) Average: 48 hr; for inhibition of cell growth of normal human bone marrow cells (in words): 1, 10, 25, 50 μM, 48 hrs
Source text: Cell Viability of Normal Mononuclear Cells after 48 hr CAPE and GL8 Treatment, Determined by Prestoblue Cell Viability Assay.

Bob-1 = test: Immunoblot of Bob-1 protein levels in KMM1 cells; assay type: cell-based, human; conditions: KMM1, 25 μM, 48 hours
KMM1 myeloma cells = test: KMM1 myeloma cell growth inhibition, PrestoBlue cell viability assay, 48 hours; assay type: cell-based, human
Procedure: Human myeloma cell line KMM1 was purchased from the Japanese Collection of Research Bioresources Cell Bank (JCBR, Japan). KMS-11 cells were a kind gift from Dr. David Hoskin's Laboratory, […], Canada. Myeloma cells were grown in RPMI-1640 media (Sigma Aldrich, USA) supplemented with 5% heat inactivated FBS (Gibco), […] L-glutamine (Gibco), 5 mM HEPES and 1% Penstrep (Sigma Aldrich, USA) in a 5% CO2 incubator at 37° C. Cell lines were tested regularly for mycoplasma and kept free of contamination. All other chemicals were obtained from Sigma Aldrich, USA. Myeloma cells were seeded in 96 well plates at a density of 10^4 cells/well in appropriate cell media. Following overnight incubation at 37° C., MM cells were treated for 48 hours with varying concentrations of CAPE and its closely related analogues and cell viability was determined by PrestoBlue assay (Invitrogen, ON) according to the manufacturer's protocol. […] Myeloma cell growth inhibition was determined by presto blue cell viability assay (FIG. 2). […] At 5 μM, GL8 inhibited 49.9±2.9%, while CAPE inhibited the growth of 7.3±1% myeloma cells only (P=0.000017); At 10 μM, GL8 inhibited 62.3±2%, while CAPE inhibited the growth of 25.6±5% (P=0.00026).

Ikaros [5] = test: Immunoblot of cereblon pathway protein Ikaros in KMM1 cells; assay type: cell-based, human; conditions: KMM1 (lenalidomide resistant)
Source text: as §1

cleaved caspase-3 = test: Immunoblot of cleaved caspase-3 in KMM1 cells; assay type: cell-based, human; conditions: KMM1, 25 μM, 48 hr
Procedure: Furthermore, a noticeable increase in cleaved caspase levels in KMM1 cells treated with 25 μM GL8 and MT30 was observed. In comparison with 25 μM CAPE, a 3.2 fold increase in cleaved caspase-3 by MT30 and a 2.9 fold increase by 25 μM of GL8 were observed (FIG. 5).

[6] = test system: OCI-Ly3 human lymphoma cell line; test: Lymphoma cell growth inhibition in lenalidomide-insensitive OCI-Ly3; assay type: cell-based
[7] = test system: KMM1 lenalidomide non-responsive myeloma cell line; test: Combination treatment of lenalidomide and CAPE analogues, KMM1 cell viability after 72 hr; conditions: Homo sapiens
[8] = test system: MM1S human myeloma cell line; test: Cell growth inhibition effect of lenalidomide on MM1S myeloma cells; assay type: cell-based
[9] = test system: MMIR human myeloma cell line; test: Cell growth inhibition effect of lenalidomide on MMIR myeloma cells; assay type: cell-based
[10] = KMM-1, read-out: % KMM1 Cell viability, single compound treatment
[11] = KMM-1, 72 h, read-out: % KMM1 Cell viability after 72 hr Lenalidomide Treatment

With `O=C(/C=C/c1ccc(O)c(O)c1)NCCc1ccccc1` [D19] the “effect on cyclin D3 levels” value (Cyclin D3) was “did not have any effect”.

For `O=C(/C=C/c1ccc(O)c(O)c1)OCCCc1ccccc1` [GL8], the “levels of Ikaros in comparison with 50 μM CAPE” value (Ikaros [1]) was “significantly decreased”, the “levels of IRF4 in comparison with 50 μM CAPE” value (IRF4 [2]; 50 μM) was “significantly decreased” and the “levels of IRF4 in comparison with 50 μM CAPE” value (IRF4 [3]; KMM1 (lenalidomide resistant), 50 μM) was “significantly decreased”. For the same compound, the “decrease of IRF4 protein expression level” value (IRF4 [3]; KMM1, 25 μM, 48 hours) was 62%, the OCT2 protein levels (OCT2) was “downregulated” and the “cyclin D3 protein levels in comparison with CAPE” value (Cyclin D3) was “decreased cyclin D3 protein levels dramatically”. For the same compound, the “effect on cyclin D3 levels” value (Cyclin D3) was “decrease cyclin D3 levels in a dose-dependent manner”, the “Normal Bone Marrow Mononuclear Cell Viability (%) Average” value ([4]; 1 μM) was 110.0% and the “Normal Bone Marrow Mononuclear Cell Viability (%) Average” value ([4]; 10 μM) was 109.2%. For the same compound, the “Normal Bone Marrow Mononuclear Cell Viability (%) Average” value ([4]; 25 μM) was 110.3%, the “Normal Bone Marrow Mononuclear Cell Viability (%) Average” value ([4]; 50 μM) was 101.9% and the “inhibition of cell growth of normal human bone marrow cells (in words)” value [4] was “neither GL8 nor CAPE at the following concentrations inhibited”. For the same compound, the Bob-1 protein levels (Bob-1) was “downregulated”, the “myeloma cell growth inhibition (in words)” value (KMM1 myeloma cells; KMM1) was “significant myeloma cell growth inhibition” and the “myeloma cell growth inhibition” value (KMM1 myeloma cells; KMM1, 48 hours, 25 μM) was 58.3±13%. The “myeloma cell growth inhibition” value (KMM1 myeloma cells; KMM1, 48 hours, 50 μM) was 80±5%, the “levels of Ikaros in comparison with 50 μM CAPE” value (Ikaros [5]) was “significantly decreased” and the “increase in cleaved caspase-3 in comparison with 25 μM CAPE” value (cleaved caspase-3) was 2.9 fold. For the same compound, the “lymphoma cell growth inhibition” value ([6]; OCI-Ly3, 5 μM) was 49.9±2.9% and the “lymphoma cell growth inhibition” value ([6]; OCI-Ly3, 10 μM) was 62.3±2%.

With `O=C(/C=C/c1ccc(O)c(O)c1)OCCc1ccccc1` [CAPE, Caffeic acid (3,4-dihydroxycinnamic acid) phenethyl ester] the “decrease of IRF4 protein expression level” value (IRF4 [3]; KMM1, 25 μM, 48 hours) was 26%, the OCT2 protein levels (OCT2) was “downregulated” and the “Normal Bone Marrow Mononuclear Cell Viability (%) Average” value ([4]; 1 μM) was 99.3%. The “Normal Bone Marrow Mononuclear Cell Viability (%) Average” value ([4]; 10 μM) was 103.4%, the “Normal Bone Marrow Mononuclear Cell Viability (%) Average” value ([4]; 25 μM) was 117.7% and the “Normal Bone Marrow Mononuclear Cell Viability (%) Average” value ([4]; 50 μM) was 122.6%. The “inhibition of cell growth of normal human bone marrow cells (in words)” value [4] was “neither GL8 nor CAPE at the following concentrations inhibited”, the Bob-1 protein levels (Bob-1) was “downregulated” and the inhibition at 1 µM (KMM1 myeloma cells; Homo sapiens, KMM-1, KMM1, 48 hours, 1 μM, 5 μM and 10 μM) was < 30%. It also gave an inhibition at 25 µM (KMM1 myeloma cells; Homo sapiens, KMM-1, KMM1, 48 hours, 25 μM) of 38.7 ± 4%, an inhibition at 50 µM (KMM1 myeloma cells; Homo sapiens, KMM-1, KMM1, 48 hours, 50 μM) of 59.6 ± 2% and an inhibition at 5 µM ([6]; Homo sapiens, OCI-Ly3, 5 μM) of 7.3 ± 1%. The inhibition at 10 µM ([6]; Homo sapiens, OCI-Ly3, 10 μM) was 25.6 ± 5%, the viability at 5 µM [7, 10] was 51.8% and the viability at 25 µM [7, 10] was 36%.

For `O=C(/C=C/c1ccc(O)c(O)c1)OCCC1CCCCC1` [MT30], the “IRF4 protein expression (in words)” value (IRF4 [3]; KMM1, 25 μM, 48 hours) was “significantly down regulated”, the OCT2 protein levels (OCT2) was “downregulated” and the “cyclin D3 protein levels in comparison with CAPE” value (Cyclin D3) was “decreased cyclin D3 protein levels dramatically”. The Bob-1 protein levels (Bob-1) was “downregulated”, the “myeloma cell growth inhibition (in words)” value (KMM1 myeloma cells; KMM1) was “significant myeloma cell growth inhibition” and the “increase in cleaved caspase-3 in comparison with 25 μM CAPE” value (cleaved caspase-3) was 3.2 fold.

`Nc1cccc2c1CN(C1CCC(=O)NC1=O)C2=O` (stereo not shown) [Lenalidomide] was tested, and the “effect on IRF4 protein level” value (IRF4 [2]; 10 μM, 25 μM and 50 μM) was “did not alter”, the “effect on IRF4 protein level” value (IRF4 [3]; KMM1 (lenalidomide resistant), 10 μM, 25 μM and 50 μM) was “Neither the clinically relevant concentration of 10 μM lenalidomide (Greenberg et al., 2013) nor higher concentrations of lenalidomide (25 μM and 50 μM) tested had any effect” and the “cell growth inhibition effect (sensitivity in words)” value (from here on “cell growth inhibition effect”) [8] was “sensitive”. The “cell growth inhibition effect” value [9] was “moderately sensitive”, the “cell growth inhibition effect” value (KMM1 myeloma cells; KMM1) was “insensitive” and the “cell growth inhibition effect” value ([6]; OCI-Ly3) was “insensitive”. The viability at 0.0001 µM [7, 11] was 99%, the viability at 0.0005 µM [7, 11] was 97% and the viability at 0.001 µM [7, 11] was 97%. The viability at 0.005 µM [7, 11] was 96%, the viability at 0.01 µM [7, 11] was 97% and the viability at 0.1 µM [7, 11] was 85%. It also gave a viability at 1 µM [7, 11] of 80%, a viability at 10 µM [7, 11] of 80% and a viability at 100 µM [7, 11] of 78%.

With `O=C(O)/C=C/c1ccc(O)c(O)c1` [CA, Caffeic acid] the “effect on cyclin D3 levels” value (Cyclin D3) was “did not have any effect”.
